Measured values: PubChem BioAssay (NCI)
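48-hour exposure; five concentrations; linearly interpolated endpoints. TGI: concentration producing complete growth inhibition.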

Legend:
Assay in all cases: DTP human tumour cell line panel, 48 h
786-0 renal = test system: 786-0 renal
A498 renal = test system: A498 renal
A549 NSCLC = test system: A549 NSCLC
ACHN renal = test system: ACHN renal
BT-549 breast = test system: BT-549 breast
CAKI-1 renal = test system: CAKI-1 renal
CCRF-CEM leukemia = test system: CCRF-CEM leukemia
COLO 205 colon = test system: COLO 205 colon
DU-145 prostate = test system: DU-145 prostate
EKVX NSCLC = test system: EKVX NSCLC
HCC-2998 colon = test system: HCC-2998 colon
HCT-116 colon = test system: HCT-116 colon
HCT-15 colon = test system: HCT-15 colon
HL-60(TB) leukemia = test system: HL-60(TB) leukemia
HOP-62 NSCLC = test system: HOP-62 NSCLC
HOP-92 NSCLC = test system: HOP-92 NSCLC
HS 578T breast = test system: HS 578T breast
HT29 colon = test system: HT29 colon
IGROV1 ovarian = test system: IGROV1 ovarian
K-562 leukemia = test system: K-562 leukemia
KM12 colon = test system: KM12 colon
LOX IMVI melanoma = test system: LOX IMVI melanoma
M14 melanoma = test system: M14 melanoma
MALME-3M melanoma = test system: MALME-3M melanoma
MCF7 breast = test system: MCF7 breast
MDA-MB-231 breast = test system: MDA-MB-231 breast
MDA-MB-435 = test system: MDA-MB-435
MDA-N = test system: MDA-N
MOLT-4 leukemia = test system: MOLT-4 leukemia
NCI-H226 lung = test system: NCI-H226 lung
NCI-H23 lung = test system: NCI-H23 lung
NCI-H460 lung = test system: NCI-H460 lung
NCI-H522 lung = test system: NCI-H522 lung
NCI/ADR-RES ovarian = test system: NCI/ADR-RES ovarian
OVCAR-3 ovarian = test system: OVCAR-3 ovarian
OVCAR-4 ovarian = test system: OVCAR-4 ovarian
OVCAR-5 ovarian = test system: OVCAR-5 ovarian
OVCAR-8 ovarian = test system: OVCAR-8 ovarian
PC-3 prostate = test system: PC-3 prostate
RPMI-8226 leukemia = test system: RPMI-8226 leukemia
RXF 393 renal = test system: RXF 393 renal
SF-268 CNS = test system: SF-268 CNS
SF-295 CNS = test system: SF-295 CNS
SF-539 CNS = test system: SF-539 CNS
SK-MEL-2 melanoma = test system: SK-MEL-2 melanoma
SK-MEL-28 melanoma = test system: SK-MEL-28 melanoma
SK-MEL-5 melanoma = test system: SK-MEL-5 melanoma
SK-OV-3 ovarian = test system: SK-OV-3 ovarian
SN12C renal = test system: SN12C renal
SNB-19 CNS = test system: SNB-19 CNS
SNB-75 CNS = test system: SNB-75 CNS
SR leukemia = test system: SR leukemia
SW-620 colon = test system: SW-620 colon
T-47D breast = test system: T-47D breast
TK-10 renal = test system: TK-10 renal
U251 CNS = test system: U251 CNS
UACC-257 melanoma = test system: UACC-257 melanoma
UACC-62 melanoma = test system: UACC-62 melanoma
UO-31 renal = test system: UO-31 renal
DLD-1 colon = test system: DLD-1 colon
DMS 114 small cell lung = test system: DMS 114 small cell lung
DMS 273 small cell lung = test system: DMS 273 small cell lung
HOP-18 NSCLC = test system: HOP-18 NSCLC
KM20L2 colon = test system: KM20L2 colon
LXFL 529 NSCLC = test system: LXFL 529 NSCLC
M19-MEL melanoma = test system: M19-MEL melanoma
SNB-78 CNS = test system: SNB-78 CNS

Measured: TGI

NC(N)=NC(N)=Nc1ccc(S(N)(=O)=O)cc1
not listed: DLD-1 colon | DMS 114 small cell lung | DMS 273 small cell lung | HOP-18 NSCLC | KM20L2 colon | LXFL 529 NSCLC | M19-MEL melanoma | SNB-78 CNS
> 100 µM: all other assays above

CC(CCC(=O)O)c1ccc(Br)cc1 (stereo not drawn)
not listed: A498 renal | BT-549 breast | DU-145 prostate | HOP-92 NSCLC | HS 578T breast | MCF7 breast | MDA-MB-231 breast | MDA-MB-435 | MDA-N | NCI/ADR-RES ovarian | PC-3 prostate | SF-539 CNS | T-47D breast
> 100 µM: all other assays above
